Data reported in patent publication US20230330234A1, “HYPERBRANCHED POLYESTER POLYOL DERIVATIVE AS DRUG SOLUBILIZER” (FREIE UNIVERSITÄT BERLIN, priority 2020, published 2023).
≈ marks a conversion by molar mass, not a printed value.

What was measured:
physchem = conditions: aqueous with cosolvent or surfactant or cyclodextrin, thermodynamic from solid
Solubility in water = conditions: for solubility: Solubility in water
[1] = Carrying potential of h(PG-co-PCL)60S0.95 by elemental analysis; type: physicochemical; conditions: calculated by elemental analysis
From the text: The carrying potential (CP) of the polymer (solubilizing agent) is obtained as the ratio of the loaded and solubilized drug to the amount of solubilizing agent (Eq. 1).
For drugs presenting an absorption band at wavelength lower than 400 nm, the UV-VIS approach is not suitable, due to drug signals overlapping with signals of the solubilizing agent. Therefore, elemental analysis is chosen as alternative approach. The drugs chosen for the solubilization and entrapment contain nitrogen atoms, which are not present in the polymer structure. Via the quantification of the nitrogen content in the sample, it is possible to determine the amount of drug in it. For the loading quantification, the same equation is used as in the previous case.
The following tables (Table 5, Table 6 and Table 7) show the results of the performed analyses. In this context, h(PG-co-PCL)60S0.95 was used as hyperbranched polyester polyol derivative. Its non-sulfated backbone has a molecular weight of 60 kDa. The polyester polyol derivative has a sulfation degree of 95%.

[2] = Size and Z-potential investigation by DLS in PB; type: physicochemical; conditions: h(PG-co-PCL)60S0.95 with solubilized drug
From the text: The following tables (Table 5, Table 6 and Table 7) show the results of the performed analyses. In this context, h(PG-co-PCL)60S0.95 was used as hyperbranched polyester polyol derivative. Its non-sulfated backbone has a molecular weight of 60 kDa.

| SMILES | solubility at 18 h (physchem) [µg/mL] | solubility (Solubility in water) [µg/mL] | further results |
| --- | --- | --- | --- |
| CCN1[C@@H](C(=O)NC23CCC(C(=O)O)(CC2)CC3)[C@H](c2cccc(Cl)c2F)[C@]2(C(=O)Nc3cc(Cl)ccc32)C12CCCCC2 [APG-115] | > 300 | 2 (≈ 3.11 µM) |  |
| CN(C)C/C=C/C(=O)Nc1cc2c(Nc3ccc(F)c(Cl)c3)ncnc2cc1O[C@H]1CCOC1 [Afatinib] | > 300 | 10 (≈ 20.6 µM) |  |
| Cc1nc(NC(=O)N2CCC[C@H]2C(N)=O)sc1-c1ccnc(C(C)(C)C(F)(F)F)c1 [Alpelisib] | > 300 | 5 (≈ 11.3 µM) |  |
| CNC(=O)c1ccccc1Sc1ccc2c(/C=C/c3ccccn3)n[nH]c2c1 [Axitinib] | > 300 |  | Solubility in water (Solubility in water): 0.5 µg/mL (≈ 1.29 µM) |
| CCN(CCCOc1ccc2c(Nc3cc(CC(=O)Nc4cccc(F)c4)n[nH]3)ncnc2c1)CCOP(=O)(O)O [Barasertib] | > 300 | 50 (≈ 85.1 µM) |  |
| O=C(/C=C/c1cccc(S(=O)(=O)Nc2ccccc2)c1)NO [Belinostat] | > 300 | 30 (≈ 94.2 µM) |  |
| Cn1cnc2c(F)c(Nc3ccc(Br)cc3F)c(C(=O)NOCCO)cc21 [Binimetinib] | > 300 | 50 (≈ 113 µM) |  |
| CC(C)C[C@H](NC(=O)[C@H](Cc1ccccc1)NC(=O)c1cnccn1)B(O)O [Bortezomib] | > 300 | 50 (≈ 130 µM) |  |
| C=CC(=O)Nc1ccc2[nH]c(=O)n(C3CCN(Cc4ccc(-c5nc6cc[nH]c(=O)c6cc5-c5ccccc5)cc4)CC3)c2c1 [Borussertib] |  |  | Carrying potential [1]: 12% wt % |
| COc1cc(Nc2c(C#N)cnc3cc(OCCCN4CCN(C)CC4)c(OC)cc23)c(Cl)cc1Cl [Bosutinib] | > 300 | 10 (≈ 18.9 µM) |  |
| COc1cc2nccc(Oc3ccc(NC(=O)C4(C(=O)Nc5ccc(F)cc5)CC4)cc3)c2cc1OC [Cabozantinib] | > 300 | 2 (≈ 3.99 µM) |  |
| O=C(c1ccc(F)c(F)c1Nc1ccc(I)cc1F)N1CC(O)([C@@H]2CCCCN2)C1 [Cobimetinib] | > 300 | 40 (≈ 75.3 µM) |  |
| COc1cc(/C=C/C(=O)CC(=O)/C=C/c2ccc(O)c(OC)c2)ccc1O [Curcumin] | < 100 |  | Solubility in water (Solubility in water): 6 µg/mL (≈ 16.3 µM) |
| CC(C)(C)c1nc(-c2cccc(NS(=O)(=O)c3c(F)cccc3F)c2F)c(-c2ccnc(N)n2)s1 [Dabrafenib] | > 300 | 30 (≈ 57.7 µM) | Carrying potential [1]: 1% wt %; Size (volume) ([2]; DLS in PB, in nm (unit assumed)): 12 ± 1; Z-potential ([2]; in PB, in mV (unit assumed)): −29.6 |
| COc1cc2ncnc(Nc3ccc(F)c(Cl)c3)c2cc1NC(=O)/C=C/CN1CCCCC1 [Dacomitinib] | > 300 | 9 (≈ 19.2 µM) |  |
| Cc1nc(Nc2ncc(C(=O)Nc3c(C)cccc3Cl)s2)cc(N2CCN(CCO)CC2)n1 [Dasatinib] | > 300 |  |  |
| C[C@@H]1C[C@H]2[C@@H]3CCC4=CC(=O)C=C[C@]4(C)[C@@]3(F)[C@@H](O)C[C@]2(C)[C@@]1(O)C(=O)CO [Dexamethasone] | < 100 |  |  |
| COC(=O)N[C@@H](C)CNc1nccc(-c2cn(C(C)C)nc2-c2cc(Cl)cc(NS(C)(=O)=O)c2F)n1 [Encorafenib] | > 300 | 10 (≈ 18.5 µM) |  |
| Nc1ccccc1NC(=O)c1ccc(CNC(=O)OCc2cccnc2)cc1 [Entinostat] | > 300 | 5 (≈ 13.3 µM) |  |
| CN1CCN(c2ccc(C(=O)Nc3n[nH]c4ccc(Cc5cc(F)cc(F)c5)cc34)c(NC3CCOCC3)c2)CC1 [Entrectinib] | > 300 | 9 (≈ 16.1 µM) |  |
| C#Cc1cccc(Nc2ncnc3cc(OCCOC)c(OCCOC)cc23)c1 [Erlotinib] | > 300 | 10 (≈ 25.4 µM) |  |
| COc1ccc(-c2nc(N3CCOCC3)c3sc(CN(C)c4ncc(C(=O)NO)cn4)cc3n2)cn1 [Fimepinostat] | > 300 | 2 (≈ 3.93 µM) |  |
| CCCc1cc(C)[nH]c(=O)c1CNC(=O)c1cc(-c2ccnc(N3CCN(C)CC3)c2)cc2c1cnn2C(C)C [GSK343] | > 300 | 1 (≈ 1.85 µM) |  |
| Cn1ncc(Cl)c1-c1cc(C(=O)N[C@H](CN)Cc2cccc(F)c2)sc1Cl [GSK2110183] | > 300 | 7 (≈ 16.4 µM) |  |
| CN(C)C1CCN(C(=O)c2ccc(NC(=O)Nc3ccc(-c4nc(N5CCOCC5)nc(N5CCOCC5)n4)cc3)cc2)CC1 [Gedatolisib] | > 300 | 40 (≈ 65 µM) |  |
| CN1CC[C@@H](NC(=O)Nc2ccc(C#N)cc2)C[C@@H]1c1nc2ccccc2[nH]1 [Glasdegib] | > 300 | 50 (≈ 134 µM) |  |
